In PubChem BioAssay AID588426 (Johns Hopkins Ion Channel Center, 2011):
Activity calls are given as the source filed them.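 The calls were made as follows: active = blocks KCNQ2 potassium channel current at some tested dose, with a fitted dose response curve; inactive = the rest.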

biological target: Potassium voltage-gated channel subfamily KQT member 2 (Rattus norvegicus) (UniProt O88943); assay: KCNQ2 channel current inhibitors, SAR follow-up, orthogonal assay for KCNQ2 inhibitor project, automated electrophysiology, CHO cells, CRC2 (AID 588426); conditions: KCNQ2-CHO automated patch clamp current
Sequence (O88943 whole entry, looked up): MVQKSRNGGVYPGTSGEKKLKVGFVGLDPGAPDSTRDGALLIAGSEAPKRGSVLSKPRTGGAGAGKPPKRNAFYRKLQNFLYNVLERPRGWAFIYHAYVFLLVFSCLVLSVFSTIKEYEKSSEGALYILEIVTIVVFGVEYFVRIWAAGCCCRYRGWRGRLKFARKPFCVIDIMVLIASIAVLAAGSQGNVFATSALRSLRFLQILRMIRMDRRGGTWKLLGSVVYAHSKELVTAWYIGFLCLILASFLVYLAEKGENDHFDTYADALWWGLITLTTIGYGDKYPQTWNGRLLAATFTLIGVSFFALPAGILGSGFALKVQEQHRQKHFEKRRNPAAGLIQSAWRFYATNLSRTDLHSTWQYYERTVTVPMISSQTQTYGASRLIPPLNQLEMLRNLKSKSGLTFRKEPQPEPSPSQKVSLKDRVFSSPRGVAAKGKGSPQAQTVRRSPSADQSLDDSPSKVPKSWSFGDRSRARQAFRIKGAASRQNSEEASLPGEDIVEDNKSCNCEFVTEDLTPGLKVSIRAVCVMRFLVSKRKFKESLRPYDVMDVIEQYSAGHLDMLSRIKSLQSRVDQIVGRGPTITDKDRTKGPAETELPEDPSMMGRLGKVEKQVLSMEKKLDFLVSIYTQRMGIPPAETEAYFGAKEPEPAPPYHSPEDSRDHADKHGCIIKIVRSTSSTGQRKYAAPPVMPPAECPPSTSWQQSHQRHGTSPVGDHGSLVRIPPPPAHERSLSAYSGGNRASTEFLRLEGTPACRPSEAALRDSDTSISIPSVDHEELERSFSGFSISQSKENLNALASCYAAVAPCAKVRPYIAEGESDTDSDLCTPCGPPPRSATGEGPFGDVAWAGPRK

SMILES	IC50
CC[C@@H](C(=O)Nc1ccc(N2CCCC2)cc1)c1ccccc1	360 nM
CCC(C(=O)Nc1ccccc1N1CCCC1)c1ccccc1Cl (configuration not stated)	3310 nM
O=C(Cc1cccc(F)c1)Nc1ccccc1N1CCCC1	490 nM
O=C(Nc1ccccc1N1CCCC1)C1CCc2ccccc21 (configuration not stated)	330 nM
CCCC(C(=O)Nc1ccccc1N1CCCC1)c1ccccc1 (configuration not stated)	320 nM
O=C(Cc1ccc(Cl)cc1)Nc1ccccc1N1CCCC1	800 nM
O=C(Cc1ccccc1Cl)Nc1ccccc1N1CCCC1	950 nM
O=C(Cc1ccc(Cl)c(Cl)c1)Nc1ccccc1N1CCCC1	1070 nM
CCC(C(=O)Nc1ccccc1N1CCCC1)c1ccc(Cl)c(Cl)c1 (configuration not stated)	470 nM
O=C(Nc1ccccc1N1CCCC1)[C@H]1CCc2ccccc21	14100 nM
O=C(Nc1ccccc1N1CCCC1)C(c1ccccc1)C1CC1 (configuration not stated)	3500 nM
CCC(C(=O)Nc1ccccc1N1CCCC1)c1ccc(F)cc1 (configuration not stated)	130 nM
CCC(C(=O)Nc1ccccc1N1CCCC1)c1ccc(OC)cc1 (configuration not stated)	380 nM
CCC(C(=O)Nc1ccccc1N(C)C)c1ccccc1 (configuration not stated)	17400 nM
O=C(Nc1ccccc1N1CCCC1)[C@@H]1CCCc2ccccc21	29900 nM
CC[C@H](C(=O)Nc1ccccc1N1CCCC1)c1ccccc1	80 nM
CCC(C(=O)Nc1ccccc1N1CCCC1)c1cccc(Cl)c1 (configuration not stated)	240 nM
CC(C)CC(C(=O)Nc1ccccc1N1CCCC1)c1ccccc1 (configuration not stated)	2220 nM
O=C(Cc1ccccc1)Nc1ccccc1N1CCCC1	740 nM
COc1ccc(CC(=O)Nc2ccccc2N2CCCC2)cc1	1750 nM
O=C(Cc1cccc(C(F)(F)F)c1)Nc1ccccc1N1CCCC1	350 nM
CCC(C(=O)Nc1ccccc1N1CCCC1)c1ccccc1 (configuration not stated)	160 nM
O=C(Cc1cccc(Cl)c1)Nc1ccccc1N1CCCC1	170 nM
CC[C@H](C(=O)Nc1ccc(N2CCCC2)cc1)c1ccccc1	110 nM

SMILES	IC50
CCC(C(=O)Nc1ccccc1N1CCCC1)c1ccccc1F (configuration not stated)	440 nM
O=C(Nc1ccccc1N1CCCC1)[C@H]1CCCc2ccccc21	24600 nM
CCC(C(=O)Nc1ccc(N2CCCC2)cc1)c1ccccc1 (configuration not stated)	210 nM
CC(C(=O)Nc1ccccc1N1CCCC1)c1ccccc1 (configuration not stated)	260 nM
O=C(Cc1c(F)cccc1F)Nc1ccccc1N1CCCC1	560 nM
O=C(Cc1ccc(F)cc1)Nc1ccccc1N1CCCC1	700 nM
C[C@H](C(=O)Nc1ccccc1N1CCCC1)c1ccccc1	590 nM
COc1cccc(CC(=O)Nc2ccccc2N2CCCC2)c1	2350 nM
CCC(C(=O)Nc1ccccc1Cl)c1ccccc1 (configuration not stated)	15000 nM
CCC(C(=O)Nc1ccccc1N1CCCC1)c1ccc(Cl)cc1 (configuration not stated)	280 nM
CCC(C(=O)Nc1ccccc1N1CCCC1)c1cccc(F)c1 (configuration not stated)	360 nM
C[C@@H](C(=O)Nc1ccccc1N1CCCC1)c1ccccc1	5130 nM
CCC(C(=O)Nc1ccccc1-n1cccc1)c1ccccc1 (configuration not stated)	5270 nM
O=C(Nc1ccccc1N1CCCC1)[C@@H]1CCc2ccccc21	2290 nM
O=C(Nc1ccccc1N1CCCC1)C(F)c1ccccc1 (configuration not stated)	990 nM
O=C(Cc1ccc(F)c(F)c1)Nc1ccccc1N1CCCC1	1730 nM
Cc1cccc(CC(=O)Nc2ccccc2N2CCCC2)c1	1320 nM
CCC(C(=O)Nc1ccccc1N1CCOCC1)c1ccccc1 (configuration not stated)	12700 nM
CC[C@@H](C(=O)Nc1ccccc1N1CCCC1)c1ccccc1	940 nM
CCC(C(=O)Nc1ccccc1N1CCCC1)c1cccc(OC)c1 (configuration not stated)	120 nM
CCC(C(=O)Nc1ccccc1N1CCCC1)c1ccc(F)c(F)c1 (configuration not stated)	170 nM
CCC(C(=O)Nc1ccccc1N1CCCC1)c1ccc(OC)c(OC)c1 (configuration not stated)	20200 nM
CCC(C(=O)Nc1ccccc1N1CCCC1)c1cccc(C)c1 (configuration not stated)	330 nM
CCC(C(=O)Nc1ccccc1N1CCCC1)c1cccc(C(F)(F)F)c1 (configuration not stated)	390 nM

same assay, conditions: KCNQ2-CHO automated patch clamp current; at 30 µM (top of the series)

SMILES	current change, negative = inhibition
CC(C)(C(=O)Nc1ccccc1N1CCCC1)c1ccccc1	inactive
CCC(C(=O)Nc1cccc(N2CCCC2)c1)c1ccccc1 (configuration not stated)	inactive
CCC(C(=O)Nc1ccccc1N1CCCCC1)c1ccccc1 (configuration not stated)	inactive
CCC(C(=O)Nc1ccccc1-n1ccnc1)c1ccccc1 (configuration not stated)	inactive
CCC(C(=O)Nc1ccccc1N1C(=O)CCC1=O)c1ccccc1 (configuration not stated)	inactive
CCC(C(=O)Nc1ccccc1N(C)CC)c1ccccc1 (configuration not stated)	inactive
CCC(C(=O)Nc1ccccc1OC)c1ccccc1 (configuration not stated)	inactive
CCC(C(=O)Nc1ccccc1N(C)Cc1ccccc1)c1ccccc1 (configuration not stated)	inactive
CCC(C(=O)Nc1ccccc1N1CCCCCCC1)c1ccccc1 (configuration not stated)	inactive
O=C(Nc1ccccc1N1CCCC1)C1CCOc2ccccc21 (configuration not stated)	inactive
CC(C)C(C(=O)Nc1ccccc1N1CCCC1)c1ccccc1 (configuration not stated)	inactive
CCC(C(=O)Nc1ccccc1-n1c(C)ccc1C)c1ccccc1 (configuration not stated)	inactive
O=C(Nc1ccccc1N1CCCC1)C1(c2ccccc2)CC1	inactive
O=C(Cc1ccccc1F)Nc1ccccc1N1CCCC1	inactive
